The target of one data set is T1, Estrogen receptor (Homo sapiens, UniProt P03372).
T1 sequence (P03372 whole entry): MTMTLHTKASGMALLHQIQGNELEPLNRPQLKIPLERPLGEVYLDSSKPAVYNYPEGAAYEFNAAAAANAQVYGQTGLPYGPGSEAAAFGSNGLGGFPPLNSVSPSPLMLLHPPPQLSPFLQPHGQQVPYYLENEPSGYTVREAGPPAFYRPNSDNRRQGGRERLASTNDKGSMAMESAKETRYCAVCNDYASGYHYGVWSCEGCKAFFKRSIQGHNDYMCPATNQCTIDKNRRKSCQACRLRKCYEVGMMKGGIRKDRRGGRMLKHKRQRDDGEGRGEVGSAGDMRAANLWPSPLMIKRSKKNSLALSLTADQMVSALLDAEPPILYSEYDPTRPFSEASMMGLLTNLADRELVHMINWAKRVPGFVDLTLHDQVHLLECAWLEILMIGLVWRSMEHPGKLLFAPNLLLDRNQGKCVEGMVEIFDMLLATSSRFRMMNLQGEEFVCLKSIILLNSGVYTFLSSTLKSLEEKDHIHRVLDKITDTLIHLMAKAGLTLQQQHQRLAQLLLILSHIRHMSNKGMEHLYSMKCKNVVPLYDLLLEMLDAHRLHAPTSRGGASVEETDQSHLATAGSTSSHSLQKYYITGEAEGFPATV

For a further data set, the system named is T47D. In words: Drug uptake in human T47D cells at 1 uM incubated for 3 hrs by Hoechst 33342 dye based confocal laser scanning microscopy. The data set is classed as ADME, cell-based.
In data set [1] the target is T2, Estrogen receptor (Homo sapiens) (UniProt P03372).
T2 sequence (whole entry): T1 sequence (P03372 whole entry)
The experiment in a line: Inhibition of estrogen receptor-mediated gene expression in human T47D cells assessed as reduction in estrogen-induced pS2 mRNA expression at 3 to 30 uM incubated for 24 hrs by qPCR method. The data set is classed as cell-based. (In general: Quantitative PCR measures a nucleic acid by following its amplification.)

Data set [2] has as its target T2, Estrogen receptor (Homo sapiens). In words: Inhibition of estrogen receptor-mediated gene expression in human T47D cells assessed as reduction in estrogen-induced pS2 mRNA expression at 3 uM incubated for 24 hrs by qPCR method. Type of data set: cell-based.
The target is the same in data set [3]. The conditions noted are these: T47D, 10 uM.
Description: Inhibition of estrogen receptor-mediated gene expression in human T47D cells assessed as reduction in estrogen-induced pS2 mRNA expression at 10 uM incubated for 24 hrs by qPCR method

The source made the active and inactive calls. The rule behind the calls is not given here. Positions of bridges follow the written chain, without caps; N, C: chain ends. Non-standard residues stand in square brackets, D forms with d. Residues, ends and D or L forms follow the SMILES beside them. ξ: configuration not given here. ξtBuAla = CC(C)(C)CC(N)C(=O)O; ξAbu = CCC(N)C(=O)O Bounds are passed on as bounds.

As a reminder, the IC50 is the concentration that inhibits the measured activity by half. Take `C=CCC(NC(=O)[C@H](CC(C)C)NC(=O)[C@@H](NC(=O)[C@@H](CC=C)NC(=O)[C@@H](N)CCCNC(=N)N)[C@@H](C)CC)C(=O)N[C@@H](CCCNC(=N)N)C(=O)NC(CC(C)(C)C)C(=O)N[C@@H](CC(C)C)C(=O)N[C@@H](CCC(N)=O)C(N)=O` (stereo not given in full): the IC50 against Estrogen receptor is > 1000 nM.
Turning to `CC[C@H](C)[C@@H]1NC(=O)[C@H](NC(=O)[C@H](CCCCN)NC(=O)c2ccc3c(c2)C2(OC3=O)c3ccc(O)cc3Oc3cc(O)ccc32)CSSC[C@@H](C(=O)N[C@@H](CCCNC(=N)N)C(=O)N[C@@H](CC(C)C)C(=O)N[C@@H](CC(C)C)C(=O)N[C@@H](CCC(N)=O)C(=O)NCC(=O)NCC(=O)NCC(=O)N[C@@H](CCCNC(=N)N)C(=O)N[C@@H](CCCNC(=N)N)C(=O)N[C@@H](CCCNC(=N)N)C(=O)N[C@@H](CCCNC(=N)N)C(=O)N[C@@H](CCCNC(=N)N)C(=O)N[C@@H](CCCNC(=N)N)C(=O)N[C@@H](CCCNC(=N)N)C(N)=O)NC(=O)[C@H](CC(C)C)NC1=O`, the Drug uptake result in the data set with T47D is on record as “Active”.
With `CC[C@H](C)[C@@H]1NC(=O)[C@H](NC(=O)[C@@H](N)CCCNC(=N)N)C/C=C\C[C@@H](C(=O)N[C@@H](CCCNC(=N)N)C(=O)NC(CC(C)(C)C)C(=O)N[C@@H](CC(C)C)C(=O)N[C@@H](CCC(N)=O)C(N)=O)NC(=O)[C@H](CC(C)C)NC1=O` (stereo not given in full), the IC50 against Estrogen receptor stood at 110 nM.
The same measure, in the same setting: with `CCC(NC(=O)[C@H](CC(C)C)NC(=O)[C@@H](NC(=O)[C@H](Cc1cnc[nH]1)NC(=O)[C@@H](N)CCCNC(=N)N)[C@@H](C)CC)C(=O)N[C@@H](CCCNC(=N)N)C(=O)NC(CC(C)(C)C)C(=O)N[C@@H](CC(C)C)C(=O)N[C@@H](CCC(N)=O)C(N)=O` (stereo not given in full) (H-RHIL[ξAbu]R[ξtBuAla]LQ-NH2) the figure was 620 nM.
What is called inhibition is the percentage by which the read-out fell short of the control. Regarding H-HKILHRLLQGGGRRRRRRR-NH2, in data set [1], the inhibition entry was “inactive”. For the same molecule, the IC50 at Estrogen receptor was > 1000 nM.
For `CC[C@H](C)[C@@H]1NC(=O)[C@H](NC(=O)[C@H](CCCNC(=N)N)NC(=O)CNC(=O)CNC(=O)CNC(=O)[C@H](CCCNC(=N)N)NC(=O)[C@H](CCCNC(=N)N)NC(=O)[C@H](CCCNC(=N)N)NC(=O)[C@H](CCCNC(=N)N)NC(=O)[C@H](CCCNC(=N)N)NC(=O)[C@H](CCCNC(=N)N)NC(=O)[C@@H](N)CCCNC(=N)N)CSSC[C@@H](C(=O)N[C@@H](CCCNC(=N)N)C(=O)NC(CC(C)(C)C)C(=O)N[C@@H](CC(C)C)C(=O)N[C@@H](CCC(N)=O)C(N)=O)NC(=O)[C@H](CC(C)C)NC1=O` (stereo not given in full) the same measures were “inactive” and > 1000 nM.
Turning to `CC[C@H](C)[C@@H]1NC(=O)[C@H](NC(=O)[C@@H](N)CCCNC(=N)N)C/C=C/C[C@@H](C(=O)N[C@@H](CCCNC(=N)N)C(=O)NC(CC(C)(C)C)C(=O)N[C@@H](CC(C)C)C(=O)N[C@@H](CCC(N)=O)C(=O)NCC(=O)NCC(=O)NCC(=O)N[C@@H](CCCNC(=N)N)C(=O)N[C@@H](CCCNC(=N)N)C(=O)N[C@@H](CCCNC(=N)N)C(=O)N[C@@H](CCCNC(=N)N)C(=O)N[C@@H](CCCNC(=N)N)C(=O)N[C@@H](CCCNC(=N)N)C(=O)N[C@@H](CCCNC(=N)N)C(N)=O)NC(=O)[C@H](CC(C)C)NC1=O` (stereo not given in full), in data set [1], the inhibition entry was “inactive”.
On to `CC[C@H](C)[C@@H]1NC(=O)[C@H](NC(=O)[C@@H](N)CCCNC(=N)N)CSSC[C@@H](C(=O)N[C@@H](CCCNC(=N)N)C(=O)NC(CC(C)(C)C)C(=O)N[C@@H](CC(C)C)C(=O)N[C@@H](CCC(N)=O)C(N)=O)NC(=O)[C@H](CC(C)C)NC1=O` (stereo not given in full), for which the IC50 against Estrogen receptor came out at 13 nM.
With `CC[C@H](C)[C@@H]1NC(=O)[C@H](NC(=O)[C@@H](N)CCCNC(=N)N)C/C=C\C[C@@H](C(=O)N[C@@H](CCCNC(=N)N)C(=O)NC(CC(C)(C)C)C(=O)N[C@@H](CC(C)C)C(=O)N[C@@H](CCC(N)=O)C(=O)NCC(=O)NCC(=O)NCC(=O)N[C@@H](CCCNC(=N)N)C(=O)N[C@@H](CCCNC(=N)N)C(=O)N[C@@H](CCCNC(=N)N)C(=O)N[C@@H](CCCNC(=N)N)C(=O)N[C@@H](CCCNC(=N)N)C(=O)N[C@@H](CCCNC(=N)N)C(=O)N[C@@H](CCCNC(=N)N)C(N)=O)NC(=O)[C@H](CC(C)C)NC1=O` (stereo not given in full), in data set [1], the inhibition result is “inactive”.
As for `CC[C@H](C)[C@@H]1NC(=O)[C@H](NC(=O)[C@@H](N)CCCCN)CSSC[C@@H](C(=O)N[C@@H](CCCNC(=N)N)C(=O)N[C@@H](CC(C)C)C(=O)N[C@@H](CC(C)C)C(=O)N[C@@H](CCC(N)=O)C(=O)NCC(=O)NCC(=O)NCC(=O)N[C@@H](CCCNC(=N)N)C(=O)N[C@@H](CCCNC(=N)N)C(=O)N[C@@H](CCCNC(=N)N)C(=O)N[C@@H](CCCNC(=N)N)C(=O)N[C@@H](CCCNC(=N)N)C(=O)N[C@@H](CCCNC(=N)N)C(=O)N[C@@H](CCCNC(=N)N)C(N)=O)NC(=O)[C@H](CC(C)C)NC1=O`, the inhibition in data set [2] stood at 20%; in data set [3], 95%. Further, at Estrogen receptor, half-maximal inhibition (IC50) was put at 749 nM.
In the case of `CC[C@H](C)[C@@H]1NC(=O)[C@H](NC(=O)[C@H](CCCCN)NC(=O)c2ccc3c(c2)C2(OC3=O)c3ccc(O)cc3Oc3cc(O)ccc32)CSSC[C@@H](C(=O)N[C@@H](CCCNC(=N)N)C(=O)N[C@@H](CC(C)C)C(=O)N[C@@H](CC(C)C)C(=O)N[C@@H](CCC(N)=O)C(N)=O)NC(=O)[C@H](CC(C)C)NC1=O`, the Drug uptake entry with T47D is on record as “Not Active”.
On Estrogen receptor, `CCC(NC(=O)[C@H](CC(C)C)NC(=O)[C@@H](NC(=O)C(CC)NC(=O)[C@@H](N)CCCNC(=N)N)[C@@H](C)CC)C(=O)N[C@@H](CCCNC(=N)N)C(=O)NC(CC(C)(C)C)C(=O)N[C@@H](CC(C)C)C(=O)NCC(N)=O` (stereo not given in full) (H-R[ξAbu]IL[ξAbu]R[ξtBuAla]LG-NH2) displayed an IC50 of 670 nM.
Same read-out and setting: next, `CC[C@H](C)[C@@H]1NC(=O)[C@H](NC(=O)[C@@H](N)CCCNC(=N)N)C/C=C/C[C@@H](C(=O)N[C@@H](CCCNC(=N)N)C(=O)NC(CC(C)(C)C)C(=O)N[C@@H](CC(C)C)C(=O)N[C@@H](CCC(N)=O)C(N)=O)NC(=O)[C@H](CC(C)C)NC1=O` (stereo not given in full): 390 nM.
Consider `CC[C@H](C)[C@@H]1NC(=O)[C@H](NC(=O)[C@@H](N)CCCNC(=N)N)CSSC[C@@H](C(=O)N[C@@H](CCCNC(=N)N)C(=O)NC(CC(C)(C)C)C(=O)N[C@@H](CC(C)C)C(=O)N[C@@H](CCC(N)=O)C(=O)NCC(=O)NCC(=O)NCC(=O)N[C@@H](CCCNC(=N)N)C(=O)N[C@@H](CCCNC(=N)N)C(=O)N[C@@H](CCCNC(=N)N)C(=O)N[C@@H](CCCNC(=N)N)C(=O)N[C@@H](CCCNC(=N)N)C(=O)N[C@@H](CCCNC(=N)N)C(=O)N[C@@H](CCCNC(=N)N)C(N)=O)NC(=O)[C@H](CC(C)C)NC1=O` (stereo not given in full), for which the inhibition in data set [2] is 87%. Moreover, it took 94 nM to reach half-maximal inhibition on Estrogen receptor (IC50).
Turning to `CC[C@H](C)[C@@H]1NC(=O)[C@H](NC(=O)[C@@H](N)CCCCN)CSSC[C@@H](C(=O)N[C@@H](CCCNC(=N)N)C(=O)N[C@@H](CC(C)C)C(=O)N[C@@H](CC(C)C)C(=O)N[C@@H](CCC(N)=O)C(N)=O)NC(=O)[C@H](CC(C)C)NC1=O` (H-K[dC]ILCRLLQ-NH2; disulfide 2-5), at Estrogen receptor, 35 nM corresponded to half-maximal inhibition (IC50).
Same read-out and setting: next, H-HKILHRLLQ-NH2: > 1000 nM.
With `N=C(N)NCCC[C@H](NC(=O)[C@H](CCCNC(=N)N)NC(=O)[C@H](CCCNC(=N)N)NC(=O)[C@H](CCCNC(=N)N)NC(=O)[C@H](CCCNC(=N)N)NC(=O)[C@H](CCCNC(=N)N)NC(=O)[C@H](CCCNC(=N)N)NC(=O)[C@@H](N)Cc1ccc(O)cc1)C(N)=O`, the inhibition result in data set [1] was “inactive”. Moreover, at Estrogen receptor, the IC50 was > 1000 nM.
Turning to `CCC(NC(=O)[C@@H](N)CCCNC(=N)N)C(=O)N[C@H](C(=O)N[C@@H](CC(C)C)C(=O)N[C@@H](Cc1cnc[nH]1)C(=O)N[C@@H](CCCNC(=N)N)C(=O)NC(CC(C)(C)C)C(=O)N[C@@H](CC(C)C)C(=O)N[C@@H](CCC(N)=O)C(N)=O)[C@@H](C)CC` (stereo not given in full) (H-R[ξAbu]ILHR[ξtBuAla]LQ-NH2), the IC50 at Estrogen receptor was > 1000 nM.
For `CC[C@H](C)[C@@H]1NC(=O)[C@H](NC(=O)[C@@H](N)CCCNC(=N)N)CCCC[C@@H](C(=O)N[C@@H](CCCNC(=N)N)C(=O)NC(CC(C)(C)C)C(=O)N[C@@H](CC(C)C)C(=O)N[C@@H](CCC(N)=O)C(N)=O)NC(=O)[C@H](CC(C)C)NC1=O` (stereo not given in full), the IC50 against Estrogen receptor was > 1000 nM.

These data come from ChEMBL document CHEMBL3596179, “Structural development of stabilized helical peptides as inhibitors of estrogen receptor (ER)-mediated transcription” (Bioorg Med Chem, 2015).
